Assay [1] concerns the target CRBN-DDB1 (Homo sapiens, UniProt Q96SW2). Briefly: Compound binding to CRBN by HTRF assay. The following applies: CRBN-DDB1 2.5 nM, Cy5-Thalidomide 100 nM, 30 min at ambient temperature; read-out: HTRF Class (Cereblon binding, HTRF IC50). An outline of the steps:
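Cy5-thalidomide (100 nM) displacement from His-tagged CRBN-DDB1 (2.5 nM) read by terbium-cryptate HTRF (665/620 nm), in 20 mM HEPES, 20 mM NaCl, 0.2 mM TCEP, 0.2 mM EDTA, 0.005% Tween20. Compounds tested as 10-point 1:3 series, 30 min at ambient temperature. Signal normalised to DMSO and lenalidomide controls; IC50 fitted, Ki by Cheng-Prusoff.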

Assay [2] concerns the target T1, GSPT1 (Homo sapiens, UniProt P15170+Q96SW2).
T1 construct: CAL-51 cells were purchased from DSMZ (cat. Number ACC302); host or cells: CAL-51
In words: Immunofluorescence assay for activity to degrade GSPT1 in CAL-51 cells. It counts as cell-based. The following applies: 6 h treatment, read-out: IF Class (GSPT1 degradation, DC50). A digest of the protocol:
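CAL-51 cells treated 6 h with compound (30 μM to 0.1 nM), fixed, immunostained for GSPT1 with DAPI and phalloidin counterstains, imaged by high-content microscopy. Mean per-cell GSPT1 intensity normalized to controls; DC50 by non-linear regression.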

The term IC50 denotes the concentration that gives 50% inhibition. The DC50 is the concentration giving 50% degradation.

T1 sequence (P15170 whole entry): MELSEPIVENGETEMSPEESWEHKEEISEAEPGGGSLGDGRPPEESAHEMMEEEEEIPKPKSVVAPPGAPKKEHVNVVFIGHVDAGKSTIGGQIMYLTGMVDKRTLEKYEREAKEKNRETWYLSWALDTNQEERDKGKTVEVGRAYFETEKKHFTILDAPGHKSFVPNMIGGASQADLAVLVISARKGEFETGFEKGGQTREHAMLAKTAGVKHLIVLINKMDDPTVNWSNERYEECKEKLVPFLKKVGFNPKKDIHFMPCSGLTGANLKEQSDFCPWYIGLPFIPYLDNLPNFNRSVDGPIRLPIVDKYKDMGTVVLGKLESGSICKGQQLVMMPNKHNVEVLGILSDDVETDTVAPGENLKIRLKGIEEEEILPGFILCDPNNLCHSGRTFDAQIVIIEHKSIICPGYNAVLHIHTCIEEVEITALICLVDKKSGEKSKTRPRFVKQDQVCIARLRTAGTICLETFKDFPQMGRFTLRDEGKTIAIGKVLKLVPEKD
T1 sequence (Q96SW2 whole entry): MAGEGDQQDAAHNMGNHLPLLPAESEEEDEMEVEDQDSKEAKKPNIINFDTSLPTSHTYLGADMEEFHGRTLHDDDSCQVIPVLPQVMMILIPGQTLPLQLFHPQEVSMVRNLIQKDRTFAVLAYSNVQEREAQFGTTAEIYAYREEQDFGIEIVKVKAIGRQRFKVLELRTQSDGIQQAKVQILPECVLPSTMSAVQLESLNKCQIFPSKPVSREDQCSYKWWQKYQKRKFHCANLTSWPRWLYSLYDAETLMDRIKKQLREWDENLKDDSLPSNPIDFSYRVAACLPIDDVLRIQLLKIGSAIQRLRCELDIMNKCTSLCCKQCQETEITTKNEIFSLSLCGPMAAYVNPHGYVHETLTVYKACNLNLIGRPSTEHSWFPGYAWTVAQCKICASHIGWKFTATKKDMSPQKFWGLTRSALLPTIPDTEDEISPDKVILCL
T1 sequence (Q16531 2-1140 partner limits assumed): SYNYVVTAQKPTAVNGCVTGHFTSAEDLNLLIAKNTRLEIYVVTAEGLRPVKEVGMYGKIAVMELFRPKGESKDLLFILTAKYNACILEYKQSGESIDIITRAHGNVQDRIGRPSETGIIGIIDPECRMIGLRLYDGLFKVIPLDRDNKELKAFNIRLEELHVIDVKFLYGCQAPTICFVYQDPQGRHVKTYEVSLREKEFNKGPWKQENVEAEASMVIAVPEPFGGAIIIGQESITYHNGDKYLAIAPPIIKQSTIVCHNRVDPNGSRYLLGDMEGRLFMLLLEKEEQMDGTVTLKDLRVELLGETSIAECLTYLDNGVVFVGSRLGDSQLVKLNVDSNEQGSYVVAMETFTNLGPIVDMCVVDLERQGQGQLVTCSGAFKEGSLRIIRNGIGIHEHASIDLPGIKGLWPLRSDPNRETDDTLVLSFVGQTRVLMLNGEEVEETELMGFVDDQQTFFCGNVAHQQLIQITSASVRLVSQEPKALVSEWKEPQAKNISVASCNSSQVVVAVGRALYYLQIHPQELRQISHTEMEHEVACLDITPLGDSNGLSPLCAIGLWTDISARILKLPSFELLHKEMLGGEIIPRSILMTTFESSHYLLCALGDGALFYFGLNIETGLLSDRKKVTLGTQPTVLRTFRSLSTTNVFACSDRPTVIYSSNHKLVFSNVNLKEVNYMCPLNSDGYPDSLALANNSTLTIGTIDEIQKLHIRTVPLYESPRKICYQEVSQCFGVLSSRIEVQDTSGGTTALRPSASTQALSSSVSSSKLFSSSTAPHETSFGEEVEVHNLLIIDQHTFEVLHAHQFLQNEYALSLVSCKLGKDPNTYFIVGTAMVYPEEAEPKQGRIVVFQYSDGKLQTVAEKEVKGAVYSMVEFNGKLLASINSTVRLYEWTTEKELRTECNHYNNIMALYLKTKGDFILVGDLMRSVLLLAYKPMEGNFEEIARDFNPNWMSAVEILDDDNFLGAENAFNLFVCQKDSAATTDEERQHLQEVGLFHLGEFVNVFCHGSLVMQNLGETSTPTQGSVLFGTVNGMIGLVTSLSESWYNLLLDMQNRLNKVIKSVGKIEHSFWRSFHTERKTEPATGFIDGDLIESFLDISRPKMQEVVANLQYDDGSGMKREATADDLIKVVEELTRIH
Sequence of CRBN-DDB1 (Q96SW2 whole entry): as the sequence (Q96SW2 whole entry) above
Sequence of CRBN-DDB1 (Q16531 whole entry partner): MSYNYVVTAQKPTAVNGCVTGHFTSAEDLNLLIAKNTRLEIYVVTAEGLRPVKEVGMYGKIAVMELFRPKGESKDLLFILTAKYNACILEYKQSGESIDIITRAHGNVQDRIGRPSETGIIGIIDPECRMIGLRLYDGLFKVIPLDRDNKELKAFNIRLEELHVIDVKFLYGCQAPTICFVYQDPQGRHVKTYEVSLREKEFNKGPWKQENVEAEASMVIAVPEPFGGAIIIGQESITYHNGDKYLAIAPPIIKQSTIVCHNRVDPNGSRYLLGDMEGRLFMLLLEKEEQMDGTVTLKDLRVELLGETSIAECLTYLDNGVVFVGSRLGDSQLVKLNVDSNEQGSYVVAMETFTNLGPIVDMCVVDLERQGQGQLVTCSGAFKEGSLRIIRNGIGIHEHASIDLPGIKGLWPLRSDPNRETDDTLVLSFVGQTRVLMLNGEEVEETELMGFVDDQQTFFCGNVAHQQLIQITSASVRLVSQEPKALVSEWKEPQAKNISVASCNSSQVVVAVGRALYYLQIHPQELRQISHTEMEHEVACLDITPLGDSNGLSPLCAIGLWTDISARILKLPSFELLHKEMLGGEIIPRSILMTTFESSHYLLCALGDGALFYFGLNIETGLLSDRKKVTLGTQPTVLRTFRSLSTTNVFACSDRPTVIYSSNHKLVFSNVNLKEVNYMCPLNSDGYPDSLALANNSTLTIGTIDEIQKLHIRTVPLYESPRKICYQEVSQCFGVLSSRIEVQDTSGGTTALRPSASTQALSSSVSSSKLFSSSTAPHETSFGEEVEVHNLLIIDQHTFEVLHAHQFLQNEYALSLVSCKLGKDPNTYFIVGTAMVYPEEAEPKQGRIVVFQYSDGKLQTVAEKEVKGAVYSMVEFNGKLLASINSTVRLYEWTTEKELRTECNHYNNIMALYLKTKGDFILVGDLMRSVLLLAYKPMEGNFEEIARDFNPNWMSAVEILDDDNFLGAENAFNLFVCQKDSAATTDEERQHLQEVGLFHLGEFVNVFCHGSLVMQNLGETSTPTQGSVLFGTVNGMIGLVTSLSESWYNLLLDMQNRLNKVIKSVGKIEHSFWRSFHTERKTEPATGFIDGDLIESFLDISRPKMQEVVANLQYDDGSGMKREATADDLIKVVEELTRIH

Regarding `O=C1CCC(c2c(F)cc(N3CC(OC(=O)NC45CC(C(F)F)(C4)C5)C3)cc2F)C(=O)N1` (stereo not drawn) [Compound 70, 1-(4-(2,6-dioxopiperidin-3-yl)-3,5-difluorophenyl)azetidin-3-yl(3-(difluoromethyl)bicyclo[1.1.1]pentan-1-yl)carbamate], in assay [1], the IC50 lay in the range of 100 to 1000 nM. The DC50 in assay [2] is at most 30 nM.
Taken in the same sequence, the figures for `O=C1CCC(c2c(F)cc(N3CC(OC(=O)NC45CC(N6CCCCC6)(C4)C5)C3)cc2F)C(=O)N1` (stereo not drawn) [Compound 65, 1-(4-(2,6-dioxopiperidin-3-yl)-3,5-difluorophenyl)azetidin-3-yl (3-(piperidin-1-yl)bicyclo[1.1.1]pentan-1-yl) carbamate] were at most 100 nM and at most 30 nM.
The like results for `CC(C)CNC(=O)OC1CN(c2cc(F)c(C3CCC(=O)NC3=O)c(F)c2)C1` (stereo not drawn) [Compound 132, 1-(4-(2,6-dioxopiperidin-3-yl)-3,5-difluorophenyl)azetidin-3-yl isobutylcarbamate] were, in that order, 100 to 1000 nM and over 300 nM.
Taken in the same sequence, the figures for `Cc1cc(C)cc(NC(=O)NC2CN(c3ccc(C4CCC(=O)NC4=O)c(Cl)c3)C2)c1` (stereo not drawn) [Compound 35, 1-(1-(3-chloro-4-(2,6-dioxopiperidin-3-yl)phenyl)azetidin-3-yl)-3-(3,5-dimethylphenyl)urea] were 100 to 1000 nM and over 300 nM.
With `Cc1ccc(NC(=O)OC2CN(c3cc(Cl)c(C4CCC(=O)NC4=O)cc3F)C2)cc1Cl` (stereo not drawn) [Compound 29], the IC50 in assay [1] is over 1000 nM. Besides, the DC50 in assay [2] lay within 30 to 300 nM.
Consider `O=C1CCC(c2c(F)cc(N3CC(OC(=O)NC4CC5(CCC5)C4)C3)cc2F)C(=O)N1` (stereo not drawn) [Compound 138, 1-(4-(2,6-dioxopiperidin-3-yl)-3,5-difluorophenyl)azetidin-3-yl spiro[3.3]heptan-2-ylcarbamate], for which the IC50 in assay [1] is at most 100 nM. Besides, the DC50 in assay [2] is at most 30 nM.
The like results for `COc1ccc(C(F)(F)C23CC(NC(=O)OC4CN(c5cc(F)c(C6CCC(=O)NC6=O)c(F)c5)C4)(C2)C3)cc1` (stereo not drawn) [Compound 69, 1-(4-(2,6-dioxopiperidin-3-yl)-3,5-difluorophenyl)azetidin-3-yl (3-(difluoro(4-methoxyphenyl)methyl)bicyclo[1.1.1]pentan-1-yl)carbamate] were, in that order, 100 to 1000 nM and at most 30 nM.
Taken in the same sequence, the figures for `Cc1cc(NC(=O)OC2CN(c3cc(F)c(C4CCC(=O)NC4=O)c(F)c3)C2)cc(CN2CC3CC2CO3)c1C` (stereo not drawn) [Compound 64, 1-(4-(2,6-dioxopiperidin-3-yl)-3,5-difluorophenyl)azetidin-3-yl(3-(2-oxa-5-azabicyclo[2.2.1]heptan-5-ylmethyl)-4,5-dimethylphenyl) carbamate] were at most 100 nM and at most 30 nM.
In the case of `O=C1CCC(c2c(F)cc(N3CC(OC(=O)NC45CC(C4)C5)C3)cc2F)C(=O)N1` (stereo not drawn) [Compound 63, 1-(4-(2,6-dioxopiperidin-3-yl)-3,5-difluorophenyl)azetidin-3-yl bicyclo[1.1.1]pentan-1-ylcarbamate], the IC50 in assay [1] is 100 to 1000 nM. The DC50 in assay [2] was over 300 nM.
Taken in the same sequence, the figures for `O=C1CCC(c2c(F)cc(N3CC(OC(=O)NC4CCCCC4)C3)cc2F)C(=O)N1` (stereo not drawn) [Compound 79, 1-(4-(2,6-dioxopiperidin-3-yl)-3,5-difluorophenyl)azetidin-3-yl cyclohexylcarbamate] were 100 to 1000 nM and 30 to 300 nM.
In the case of `Cc1cc(NC(=O)OC2CN(c3cc(F)c(C4CCC(=O)NC4=O)c(F)c3)C2)c(F)cc1Cl` (stereo not drawn) [Compound 39, 1-(4-(2,6-dioxopiperidin-3-yl)-3,5-difluorophenyl)azetidin-3-yl(4-chloro-2-fluoro-5-methylphenyl)carbamate], the IC50 in assay [1] fell in the range of 100 to 1000 nM. Besides, in assay [2], the DC50 is at most 30 nM.
The like results for `O=C1CCC(c2c(F)cc(N3CC(OC(=O)NCC4CC(F)(F)C4)C3)cc2F)C(=O)N1` (stereo not drawn) [Compound 96, 1-(4-(2,6-dioxopiperidin-3-yl)-3,5-difluorophenyl)azetidin-3-yl ((3,3-difluorocyclobutyl)methyl)carbamate] were, in that order, 100 to 1000 nM and 30 to 300 nM.
As to `COc1c(N2CC(OC(=O)Nc3ccc(C)c(Cl)c3)C2)ccc(C2CCC(=O)NC2=O)c1Cl` (stereo not drawn) [Compound 59, 1-(3-chloro-4-(2,6-dioxopiperidin-3-yl)-2-methoxyphenyl)azetidin-3-yl (3-chloro-4-methylphenyl)carbamate], in assay [1], the IC50 was over 1000 nM. Also, the DC50 in assay [2] is over 300 nM.
Taken in the same sequence, the figures for `O=C1CCC(c2c(F)cc(N3CC(OC(=O)NC45CC(c6ccccc6)(C4)C5)C3)cc2F)C(=O)N1` (stereo not drawn) [Compound 61, 1-(4-(2,6-dioxopiperidin-3-yl)-3,5-difluorophenyl)azetidin-3-yl(3-phenylbicyclo[1.1.1]pentan-1-yl) carbamate] were 100 to 1000 nM and at most 30 nM.
Turning to `CC(C)(C)c1ccc(NC(=O)NC2CN(c3cc(F)c(C4CCC(=O)NC4=O)c(F)c3)C2)cn1` (stereo not drawn) [Compound 12, 1-(6-(tert-butyl)pyridin-3-yl)-3-(1-(4-(2,6-dioxopiperidin-3-yl)-3,5-difluorophenyl)azetidin-3-yl)urea], the IC50 in assay [1] is at most 100 nM. Also, the half-maximal degradation concentration (DC50) in assay [2] was at most 30 nM.
Taken in the same sequence, the figures for `O=C1CCC(c2c(F)cc(N3CC(OC(=O)Nc4cc(OC(F)(F)F)ccc4F)C3)cc2F)C(=O)N1` (stereo not drawn) [Compound 33, 1-(4-(2,6-dioxopiperidin-3-yl)-3,5-difluorophenyl)azetidin-3-yl (2-fluoro-5-(trifluoromethoxy)phenyl)carbamate] were 100 to 1000 nM and at most 30 nM.
Taken in the same sequence, the figures for `CO[C@H]1CC[C@H](NC(=O)OC2CN(c3cc(F)c(C4CCC(=O)NC4=O)c(F)c3)C2)CC1` (stereo partly drawn) [Compound 133, 1-(4-(2,6-dioxopiperidin-3-yl)-3,5-difluorophenyl)azetidin-3-yl ((1R,4R)-4-methoxycyclohexyl)carbamate] were 100 to 1000 nM and 30 to 300 nM.
Taken in the same sequence, the figures for `Cc1ccc(N(C)C(=O)OC2CN(c3cc(F)c(C4CCC(=O)NC4=O)c(F)c3)C2)cc1Cl` (stereo not drawn) [Compound 145, 1-(4-(2,6-dioxopiperidin-3-yl)-3,5-difluorophenyl)azetidin-3-yl(3-chloro-4-methylphenyl)(methyl) carbamate] were at most 100 nM and 30 to 300 nM.
On to `O=C1CCC(c2c(F)cc(N3CC(NC(=O)Nc4cccc(OC(F)F)c4)C3)cc2F)C(=O)N1` (stereo not drawn) [Compound 15, 1-(3-(difluoromethoxy)phenyl)-3-(1-(4-(2,6-dioxopiperidin-3-yl)-3,5-difluorophenyl)azetidin-3-yl)urea], for which the IC50 in assay [1] is at most 100 nM. The DC50 in assay [2] is 30 to 300 nM.
For the compound `Cc1ccc(NC(=O)NC2CN(c3cc(F)c(C4CCC(=O)NC4=O)c(F)c3)C2)cc1Cl` (stereo not drawn) [Compound 1, 1-(3-chloro-4-methylphenyl)-3-(1-(4-(2,6-dioxopiperidin-3-yl)-3,5-difluorophenyl)azetidin-3-yl)urea], the IC50 in assay [1] is 100 to 1000 nM. Further, the half-maximal degradation concentration (DC50) in assay [2] is at most 30 nM.
Consider `O=C1CCC(c2c(F)cc(N3CC(NC(=O)Nc4cc(-c5ccccc5)ccn4)C3)cc2F)C(=O)N1` (stereo not drawn) [Compound 25, 1-(1-(4-(2,6-dioxopiperidin-3-yl)-3,5-difluorophenyl)azetidin-3-yl)-3-(4-phenylpyridin-2-yl) urea], for which, in assay [1], the IC50 was at most 100 nM. The DC50 in assay [2] is over 300 nM.
